Reference: ChEMBL document CHEMBL5724914, “Linking interpersonal differences in gut microbiota composition and drug biotransformation activity” (2024)

What was measured:
[1] = (§1) The drug is tested on Z-024 corresponding to pig gut metagenome with ENA study accession number: PRJEB37062 and ENA sample accession number: ERS12561823 for biotransformation under anaerobic condition. The drug concentrations were measured over 9 timepoints collected between 0 and 24 hours of incubation by liquid-chromatography-coupled mass spectrometry (LC–MS); settings: 2 µM
[2] = as §1, with “WLS-220” for “Z-024”, “human” for “pig”, “ERS12561769” for “ERS12561823”; settings: 2 µM
[3] = as §1, with “WLS-027” for “Z-024”, “human” for “pig”, “ERS12561744” for “ERS12561823”; settings: 2 µM
[4] = human gut metagenome, 24 h, 2 µM
[5] = human gut metagenome, 24 h, 2 µM; remark: listed apart in the source
[6] = as §1, with “WLS-069” for “Z-024”, “human” for “pig”, “ERS12561748” for “ERS12561823”; settings: 2 µM
[7] = as §1, with “Z-011” for “Z-024”, “mouse” for “pig”, “ERS12561811” for “ERS12561823”; settings: 2 µM
[8] = as §1, with “WLS-090” for “Z-024”, “human” for “pig”, “ERS12561753” for “ERS12561823”; settings: 2 µM
[9] = as §1, with “Z-010” for “Z-024”, “to” for “to pig gut”, “ERS12561810” for “ERS12561823”; settings: 2 µM
[10] = as §1, with “Z-005” for “Z-024”, “to” for “to pig gut”, “ERS12561805” for “ERS12561823”; settings: 2 µM
[11] = as §1, with “Z-020” for “Z-024”, “rabbit” for “pig”, “ERS12561819” for “ERS12561823”; settings: 2 µM
[12] = as §1, with “WLS-039” for “Z-024”, “human” for “pig”, “ERS12561746” for “ERS12561823”; settings: 2 µM
[13] = human gut metagenome, 24 h, 2 µM; remark: listed apart in the source
[14] = human gut metagenome, 24 h, 2 µM; remark: listed apart in the source
[15] = as §1, with “WLS-052” for “Z-024”, “human” for “pig”, “ERS12561747” for “ERS12561823”; settings: 2 µM
[16] = human gut metagenome, 24 h, 2 µM; remark: listed apart in the source
[17] = as §1, with “Z-026” for “Z-024”, “to” for “to pig gut”, “ERS12561825” for “ERS12561823”; settings: 2 µM
[18] = as §1, with “WLS-310” for “Z-024”, “human” for “pig”, “ERS12561785” for “ERS12561823”; settings: 2 µM
[19] = human gut metagenome, 24 h, 2 µM; remark: listed apart in the source
[20] = as §1, with “WLS-082” for “Z-024”, “human” for “pig”, “ERS12561751” for “ERS12561823”; settings: 2 µM
Also: call rule not given here.

CC(O)(CS(=O)(=O)c1ccc(F)cc1)C(=O)Nc1ccc(C#N)c(C(F)(F)F)c1 (stereo not given) [BICALUTAMIDE]
Bacterial Biotransformation [1]: Compound NOT metabolized | Bacterial Biotransformation [2]: Compound NOT metabolized | Bacterial Biotransformation [3]: Compound NOT metabolized | Bacterial Biotransformation [4]: Compound NOT metabolized | Bacterial Biotransformation [5]: Compound NOT metabolized | Bacterial Biotransformation [6]: Compound NOT metabolized | Bacterial Biotransformation [7]: Compound NOT metabolized | Bacterial Biotransformation [8]: Compound NOT metabolized | Bacterial Biotransformation [9]: Compound NOT metabolized | Bacterial Biotransformation [10]: Compound NOT metabolized | Bacterial Biotransformation [11]: Compound NOT metabolized | Bacterial Biotransformation [12]: Compound NOT metabolized | Bacterial Biotransformation [13]: Compound NOT metabolized | Bacterial Biotransformation [14]: Compound NOT metabolized | Bacterial Biotransformation [15]: Compound NOT metabolized | Bacterial Biotransformation [16]: Compound NOT metabolized | Bacterial Biotransformation [17]: Compound NOT metabolized | Bacterial Biotransformation [18]: Compound NOT metabolized | Bacterial Biotransformation [19]: Compound NOT metabolized

O=C(O)COCCN1CCN(C(c2ccccc2)c2ccc(Cl)cc2)CC1 (stereo not given) [CETIRIZINE]
Bacterial Biotransformation [1]: Compound metabolized | Bacterial Biotransformation [2]: Compound metabolized | Bacterial Biotransformation [3]: Compound metabolized | Bacterial Biotransformation [4]: Compound metabolized | Bacterial Biotransformation [5]: Compound metabolized | Bacterial Biotransformation [6]: Compound metabolized | Bacterial Biotransformation [7]: Compound NOT metabolized | Bacterial Biotransformation [8]: Compound metabolized | Bacterial Biotransformation [9]: Compound metabolized | Bacterial Biotransformation [10]: Compound metabolized | Bacterial Biotransformation [11]: Compound NOT metabolized | Bacterial Biotransformation [12]: Compound metabolized | Bacterial Biotransformation [13]: Compound metabolized | Bacterial Biotransformation [14]: Compound metabolized | Bacterial Biotransformation [15]: Compound metabolized | Bacterial Biotransformation [16]: Compound metabolized | Bacterial Biotransformation [17]: Compound NOT metabolized | Bacterial Biotransformation [20]: Compound metabolized | Bacterial Biotransformation [18]: Compound metabolized | Bacterial Biotransformation [19]: Compound metabolized

CCN1CCCC1CNC(=O)c1cc(S(N)(=O)=O)ccc1OC (stereo not given) [SULPIRIDE]
Bacterial Biotransformation [1]: Compound NOT metabolized | Bacterial Biotransformation [2]: Compound NOT metabolized | Bacterial Biotransformation [3]: Compound metabolized | Bacterial Biotransformation [4]: Compound NOT metabolized | Bacterial Biotransformation [5]: Compound metabolized | Bacterial Biotransformation [6]: Compound metabolized | Bacterial Biotransformation [7]: Compound metabolized | Bacterial Biotransformation [8]: Compound metabolized | Bacterial Biotransformation [9]: Compound metabolized | Bacterial Biotransformation [10]: Compound NOT metabolized | Bacterial Biotransformation [11]: Compound NOT metabolized | Bacterial Biotransformation [12]: Compound NOT metabolized | Bacterial Biotransformation [13]: Compound NOT metabolized | Bacterial Biotransformation [14]: Compound metabolized | Bacterial Biotransformation [15]: Compound NOT metabolized | Bacterial Biotransformation [16]: Compound NOT metabolized | Bacterial Biotransformation [17]: Compound NOT metabolized | Bacterial Biotransformation [20]: Compound NOT metabolized | Bacterial Biotransformation [18]: Compound metabolized | Bacterial Biotransformation [19]: Compound metabolized

COc1cc2nc(N3CCN(C(=O)c4ccco4)CC3)nc(N)c2cc1OC [PRAZOSIN]
Bacterial Biotransformation [1]: Compound NOT metabolized | Bacterial Biotransformation [2]: Compound metabolized | Bacterial Biotransformation [3]: Compound NOT metabolized | Bacterial Biotransformation [4]: Compound NOT metabolized | Bacterial Biotransformation [7]: Compound NOT metabolized | Bacterial Biotransformation [8]: Compound metabolized | Bacterial Biotransformation [9]: Compound NOT metabolized | Bacterial Biotransformation [10]: Compound NOT metabolized | Bacterial Biotransformation [11]: Compound NOT metabolized | Bacterial Biotransformation [12]: Compound NOT metabolized | Bacterial Biotransformation [13]: Compound NOT metabolized | Bacterial Biotransformation [14]: Compound metabolized | Bacterial Biotransformation [15]: Compound NOT metabolized | Bacterial Biotransformation [16]: Compound NOT metabolized | Bacterial Biotransformation [17]: Compound NOT metabolized | Bacterial Biotransformation [20]: Compound metabolized | Bacterial Biotransformation [18]: Compound metabolized | Bacterial Biotransformation [19]: Compound NOT metabolized

CNC(=C[N+](=O)[O-])NCCSCc1ccc(CN(C)C)o1 [RANITIDINE]
Bacterial Biotransformation [1]: Compound NOT metabolized | Bacterial Biotransformation [2]: Compound NOT metabolized | Bacterial Biotransformation [3]: Compound NOT metabolized | Bacterial Biotransformation [4]: Compound NOT metabolized | Bacterial Biotransformation [5]: Compound NOT metabolized | Bacterial Biotransformation [6]: Compound metabolized | Bacterial Biotransformation [7]: Compound metabolized | Bacterial Biotransformation [8]: Compound NOT metabolized | Bacterial Biotransformation [9]: Compound metabolized | Bacterial Biotransformation [10]: Compound NOT metabolized | Bacterial Biotransformation [11]: Compound metabolized | Bacterial Biotransformation [12]: Compound NOT metabolized | Bacterial Biotransformation [13]: Compound metabolized | Bacterial Biotransformation [14]: Compound metabolized | Bacterial Biotransformation [15]: Compound NOT metabolized | Bacterial Biotransformation [16]: Compound NOT metabolized | Bacterial Biotransformation [17]: Compound metabolized | Bacterial Biotransformation [20]: Compound metabolized | Bacterial Biotransformation [18]: Compound metabolized | Bacterial Biotransformation [19]: Compound metabolized

COC(=O)[C@H]1[C@H]2C[C@@H]3c4[nH]c5cc(OC)ccc5c4CCN3C[C@H]2C[C@@H](OC(=O)c2cc(OC)c(OC)c(OC)c2)[C@@H]1OC [RESERPINE]
Bacterial Biotransformation [1]: Compound NOT metabolized | Bacterial Biotransformation [3]: Compound metabolized | Bacterial Biotransformation [5]: Compound metabolized | Bacterial Biotransformation [6]: Compound metabolized | Bacterial Biotransformation [7]: Compound NOT metabolized | Bacterial Biotransformation [8]: Compound metabolized | Bacterial Biotransformation [9]: Compound NOT metabolized | Bacterial Biotransformation [10]: Compound NOT metabolized | Bacterial Biotransformation [11]: Compound NOT metabolized | Bacterial Biotransformation [12]: Compound metabolized | Bacterial Biotransformation [14]: Compound NOT metabolized | Bacterial Biotransformation [15]: Compound NOT metabolized | Bacterial Biotransformation [16]: Compound metabolized | Bacterial Biotransformation [17]: Compound NOT metabolized | Bacterial Biotransformation [20]: Compound metabolized | Bacterial Biotransformation [18]: Compound metabolized | Bacterial Biotransformation [19]: Compound metabolized

CCCC1O[C@@H]2C[C@H]3[C@@H]4CCC5=CC(=O)C=C[C@]5(C)[C@H]4[C@@H](O)C[C@]3(C)[C@]2(C(=O)CO)O1 (stereo not given in full) [BUDESONIDE]
Bacterial Biotransformation [1]: Compound metabolized | Bacterial Biotransformation [2]: Compound metabolized | Bacterial Biotransformation [3]: Compound metabolized | Bacterial Biotransformation [4]: Compound metabolized | Bacterial Biotransformation [5]: Compound metabolized | Bacterial Biotransformation [6]: Compound metabolized | Bacterial Biotransformation [7]: Compound metabolized | Bacterial Biotransformation [8]: Compound metabolized | Bacterial Biotransformation [9]: Compound metabolized | Bacterial Biotransformation [10]: Compound metabolized | Bacterial Biotransformation [11]: Compound NOT metabolized | Bacterial Biotransformation [12]: Compound metabolized | Bacterial Biotransformation [13]: Compound NOT metabolized | Bacterial Biotransformation [14]: Compound metabolized | Bacterial Biotransformation [15]: Compound metabolized | Bacterial Biotransformation [16]: Compound metabolized | Bacterial Biotransformation [17]: Compound NOT metabolized | Bacterial Biotransformation [18]: Compound metabolized | Bacterial Biotransformation [19]: Compound metabolized

O=c1[nH]c2ccccc2n1CCCN1CCC(n2c(=O)[nH]c3cc(Cl)ccc32)CC1 [DOMPERIDONE]
Bacterial Biotransformation [1]: Compound NOT metabolized | Bacterial Biotransformation [2]: Compound NOT metabolized | Bacterial Biotransformation [3]: Compound NOT metabolized | Bacterial Biotransformation [5]: Compound NOT metabolized | Bacterial Biotransformation [6]: Compound NOT metabolized | Bacterial Biotransformation [7]: Compound NOT metabolized | Bacterial Biotransformation [8]: Compound NOT metabolized | Bacterial Biotransformation [9]: Compound NOT metabolized | Bacterial Biotransformation [10]: Compound NOT metabolized | Bacterial Biotransformation [11]: Compound NOT metabolized | Bacterial Biotransformation [12]: Compound NOT metabolized | Bacterial Biotransformation [13]: Compound NOT metabolized | Bacterial Biotransformation [14]: Compound NOT metabolized | Bacterial Biotransformation [15]: Compound NOT metabolized | Bacterial Biotransformation [17]: Compound NOT metabolized | Bacterial Biotransformation [20]: Compound NOT metabolized | Bacterial Biotransformation [18]: Compound NOT metabolized
